How the values were obtained:
[1] = biological target: NOD-like receptor protein 3 (NLRP3) (Homo sapiens, UniProt Q96P20); test: SPR; format: binding
NLRP3 = NLRP3 (Mus musculus, UniProt Q8R4B8); test: DARTS; format: cell-based
Sequence of NLRP3 (Q8R4B8 whole entry): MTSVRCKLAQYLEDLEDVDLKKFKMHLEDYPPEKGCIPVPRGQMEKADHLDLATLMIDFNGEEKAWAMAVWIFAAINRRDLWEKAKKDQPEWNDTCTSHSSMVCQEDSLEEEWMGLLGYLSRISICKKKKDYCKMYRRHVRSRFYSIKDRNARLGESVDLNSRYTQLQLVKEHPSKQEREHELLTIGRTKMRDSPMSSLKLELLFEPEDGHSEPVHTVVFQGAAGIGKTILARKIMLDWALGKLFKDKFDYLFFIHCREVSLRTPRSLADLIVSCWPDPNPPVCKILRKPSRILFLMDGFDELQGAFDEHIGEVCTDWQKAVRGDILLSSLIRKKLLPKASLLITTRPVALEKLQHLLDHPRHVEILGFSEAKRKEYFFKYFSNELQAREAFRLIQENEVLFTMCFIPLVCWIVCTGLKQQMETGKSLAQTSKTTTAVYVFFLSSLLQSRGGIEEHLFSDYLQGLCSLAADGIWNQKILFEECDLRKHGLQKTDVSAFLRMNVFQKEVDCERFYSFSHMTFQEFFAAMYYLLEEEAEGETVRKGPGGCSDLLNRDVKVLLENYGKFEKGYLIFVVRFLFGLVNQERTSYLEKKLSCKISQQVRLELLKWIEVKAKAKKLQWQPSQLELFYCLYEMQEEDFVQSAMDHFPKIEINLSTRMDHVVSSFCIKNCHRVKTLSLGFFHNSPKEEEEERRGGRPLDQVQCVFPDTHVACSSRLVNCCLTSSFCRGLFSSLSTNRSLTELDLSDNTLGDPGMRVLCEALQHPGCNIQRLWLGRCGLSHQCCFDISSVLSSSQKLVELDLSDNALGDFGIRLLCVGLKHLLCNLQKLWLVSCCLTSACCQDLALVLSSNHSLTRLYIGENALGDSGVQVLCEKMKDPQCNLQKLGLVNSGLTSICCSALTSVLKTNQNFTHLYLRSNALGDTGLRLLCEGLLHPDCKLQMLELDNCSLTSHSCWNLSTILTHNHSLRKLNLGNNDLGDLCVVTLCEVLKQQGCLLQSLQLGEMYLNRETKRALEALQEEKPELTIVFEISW

Sequence of NOD-like receptor protein 3 (NLRP3) (Q96P20 220-536 limits assumed): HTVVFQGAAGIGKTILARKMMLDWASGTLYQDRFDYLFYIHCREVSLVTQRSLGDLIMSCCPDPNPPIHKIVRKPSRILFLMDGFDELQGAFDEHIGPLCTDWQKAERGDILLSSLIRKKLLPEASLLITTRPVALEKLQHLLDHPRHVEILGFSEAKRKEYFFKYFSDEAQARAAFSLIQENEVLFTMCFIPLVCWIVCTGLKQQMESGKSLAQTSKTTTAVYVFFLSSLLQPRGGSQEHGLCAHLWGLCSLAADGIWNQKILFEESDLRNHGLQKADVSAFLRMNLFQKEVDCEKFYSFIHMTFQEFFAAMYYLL

- Kd [1]: 9.93 µM
SMILES: Oc1c(I)cc(Cl)c2cccnc12 [CQ, 5-chloro-7-iodo-8-hydroxyquinoline]
- DARTS (BMDM lysates, CQ 15 μM) and CETSA (BMDMs) (NLRP3): pre-incubation of CQ with BMDM cell lysates attenuated pronase-induced proteolysis of NLRP3
